Experimental data published in patent publication US20130039956A1, “USE OF NITROCARBOXYLIC ACIDS FOR THE TREATMENT, DIAGNOSIS AND PROPHYLAXIS OF AGGRESSIVE HEALING PATTERNS” (priority 2010, published 2013).

Target: T1, TRPV-1 (Mus musculus, UniProt Q704Y3)
T1 construct: Whole retinas were isolated and cut into 100 μm slices using a tissue slicer; from tissue; host or cells: mouse retinal slices (100 μm)
Test: Signal transduction of receptors of the TRP-protein family in retinal slices
Type: cell-based, mice
Settings: preincubation (5 minutes) of TRPV-1 antagonist, saline specimens
Experimental: In order to determine the effect of nitrated fatty acids on receptor signal transduction, an in vitro model was used. Retinal slices from cadaver mice were prepared as described by Snellman and Nawy (Snellman J. Nawy S (2004). cGMP-dependent kinase regulates response sensitivity of the mouse on bipolar cell. J Neurosci 24:6621-6628). Whole retinas were isolated and cut into 100 μm slices using a tissue slicer and than transferred to the recording chamber. The chamber was continuously perfused with Ames media and oxygenated. Picrotoxin (100 μM), strychnine (10 μM), and TPMPA (50 μM) were added. Each nitro fatty acid was added in two experiments to achieve a final concentration of 10 μmol, and in another two experiments to achieve a final concentration of 50 μmol. In two experiments, the corresponding native fatty acid was added to achieve a final concentration of 10 and 50 μmol, and in two experiments saline solution was added which served as controls. Currents were measured via tissue electrodes and monitored throughout the investigation. After incubating the solution for 2 hours, the TRPV-1 agonist capsaicin was added to achieve a final concentration of 10 μmol. Experiments were performed using either 10 mmol Hepes or 10 mmol Mes adjusting the pH of the solution to 6.4 or 4.4, respectively. Furthermore, experiments were performed without or with preincubation (5 minutes) of the TRPV-1 antagonist capsazepine. The solution temperature was held constant at 35° C.

T1 sequence (Q704Y3 whole entry): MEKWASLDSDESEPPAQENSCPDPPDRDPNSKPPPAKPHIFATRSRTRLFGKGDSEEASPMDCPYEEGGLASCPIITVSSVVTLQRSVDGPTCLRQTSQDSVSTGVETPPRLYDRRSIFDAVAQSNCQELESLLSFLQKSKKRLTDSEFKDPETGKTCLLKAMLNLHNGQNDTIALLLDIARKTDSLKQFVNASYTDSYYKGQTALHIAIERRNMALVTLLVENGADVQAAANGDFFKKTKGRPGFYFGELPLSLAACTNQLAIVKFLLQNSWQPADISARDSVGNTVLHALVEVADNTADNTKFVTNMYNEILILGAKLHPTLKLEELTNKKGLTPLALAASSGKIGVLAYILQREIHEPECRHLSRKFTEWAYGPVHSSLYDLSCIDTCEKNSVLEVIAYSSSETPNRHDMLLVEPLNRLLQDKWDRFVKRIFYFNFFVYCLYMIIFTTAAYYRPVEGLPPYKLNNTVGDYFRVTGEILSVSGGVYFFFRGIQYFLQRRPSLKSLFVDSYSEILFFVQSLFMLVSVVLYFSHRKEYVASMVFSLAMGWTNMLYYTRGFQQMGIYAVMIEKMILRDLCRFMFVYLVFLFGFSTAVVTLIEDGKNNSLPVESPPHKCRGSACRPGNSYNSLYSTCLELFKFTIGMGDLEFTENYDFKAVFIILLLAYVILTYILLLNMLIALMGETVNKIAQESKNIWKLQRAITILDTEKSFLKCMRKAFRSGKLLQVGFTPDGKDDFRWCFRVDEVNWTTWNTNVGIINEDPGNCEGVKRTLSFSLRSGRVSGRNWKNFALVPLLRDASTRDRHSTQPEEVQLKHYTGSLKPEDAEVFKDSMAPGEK

- capsaicin effect (induced current): inhibited
SMILES: Oc1cc2c(cc1O)CN(C(=S)NCCc1ccc(Cl)cc1)CCC2 [capsazepine, reference compound]
